Assay results reported in US12239645B2, “Targeted dosing for the treatment of complement mediated disorders” (Achillion Pharmaceuticals, Inc., priority 2018, dated 2025).
Values after ≈ are worked out from the molar mass of the structure shown. Values joined by “and” are separate entries in the source; they are usually repeats but may differ in a detail not shown here. Equal values may be shown once.

How the values were obtained:
[1] = system: complement alternative pathway (AP) activity; test: SAD study: ex vivo serum AP hemolysis assay and PK-PD analysis; format: in vivo, human; conditions: for time approximately 90% or greater inhibition maintained after dosing: AP hemolysis
Experimental: For human serum preparation, venous blood was collected by standard clinical procedures into a Gold Top, SST vacutainer (BD Vacutainer). After clotting at room temperature for 30 minutes or longer, the tube was centrifuged at ˜1,300×g at 4° C. for 15 minutes to separate the serum from the clot. Serum was then aliquotted into pre-chilled cryovials (50-200 μl/vial) for storage at ˜80° C. Each vial was thawed only once and used for each complement related assay, the remaining sample was discarded without further usage. For preparation of plasma, venous blood was collected into a Lavender Top, K2EDTA vacutainer and gently inverted several times to allow for complete mixing of the blood sample with the anticoagulant. The tube was placed in an ice-bath for 30 minutes and then centrifuged for 15 minutes at ˜1300×g at 4° C. to separate the plasma from the blood cells. Plasma was divided into aliquots in pre-chilled cryogenic storage tubes and stored at a ˜80° C. freezer within one hour of having collected the blood sample. For delivery, tubes containing either serum or plasma were shipped in the presence of dry ice without additional freeze-thaw cycle.
Ex vivo serum AP hemolysis assays were conducted in 96-well microtiter plates divided into two parts, one for hemolysis and the other for serum background color subtraction. Briefly, a suspension of rabbit red blood cells (RBCs) was centrifuged at 800×g at 4° C. for 3 minutes and the supernatant was removed to get rid of the RBC debris. The RBC cell pellet was re-suspended gently with pre-chilled gelatin veronal buffer (GVB0) containing 10 mM MgEGTA to a density of 5×10^8 cells/mL. Other controls including buffer, spontaneous rabbit RBC lysis, 100% RBC lysis (in water), and normal serum control were set up alongside the test samples as well. Serum was placed in a 37° C. water-bath until mostly thawed and immediately transferred to ice bath. 20% serum was prepared with GVB0-MgEGTA buffer and kept at ice bath before testing. Reactions were carried out in a 96 well plate by mixing 50 μl of 20% serum with equal volume of GVB0-MgEGTA buffer and then quickly adding 20 μl of RBC suspension. The plate was shaken on a microtiter plate shaker for 5 seconds and then incubated at 37° C. for 30 minutes. Halfway during the incubation period, the plate was shaken for another 5 seconds as described above. At the end of the incubation, the plate was centrifuged at 800×g at 4° C. for 3 minutes to pellet the un-lysed rabbit RBCs. 80 μl of supernatant was removed carefully from all wells and transferred to a clear flat-bottom microtiter plate for the measurement of optical absorbance at 405 nm (A405) in a Molecular Devices Spectramax Plus plate reader. AP hemolysis in each well was calculated relative to the activity of the NHS reference sample formulas as follows: Hemolysis (%)=((Hm−Bk)−(Sp−Bf))/((NH−BkNH)−(Sp−Bf))×100%
where Hm=A405 in the hemolysis well, Bk=A405 in the corresponding background well, Sp=mean A405 in the spontaneous hemolysis wells, Bf=mean A405 in the buffer alone wells, NH=mean A405 in the reference NHS wells, and BkNH=mean A405 in the corresponding background wells.
The PK-PD relationship was evaluated using time-matched plasma Compound 1 concentrations and serum AP inhibition values by non-linear regression with GraphPad Prism (La Jolla, CA) using the following two models: • 1. […] Pharmacodynamic and Pharmacokinetic Results AP Activity Measured with AP Hemolysis […]

[2] = system: complement alternative pathway (AP) functional activity; test: SAD study: alternative pathway functional activity by AP Wieslab assay; format: in vivo, human
Experimental: […] were dosed and evaluated in 4 dose groups with ten subjects receiving placebo (Table 1). The first dose group had 6 active and 6 placebo subjects; subsequent groups had 6 active and 2 placebo subjects each. Each group was followed for 28 days after dosing. All subjects were monitored for safety through the last scheduled visit at Day 28. Blood and urine samples were collected at predefined time points from Days 1 to 4 to determine plasma and urine concentrations of Compound 1 and from Days 1 to 7 to determine complement related activities. Results of serum AP activity measured by AP Wieslab assay as well as plasma Bb, factor D level and several other PD biomarkers were determined.
For all subjects, blood samples were collected at specific protocol-defined time points from Day 1 to 7 to determine serum AP activity ex vivo using AP hemolysis assay and AP Wieslab assay.
A graphical display of mean complement AP functional activity (% relative to positive control) through Day 7 (reported in days) and within 24 hours of dosing (by randomized treatment group and overall) can be found in FIG. 8B and FIG. 8A, respectively.

CC(=O)c1nn(CC(=O)N2[C@H](C(=O)Nc3nc(Br)ccc3C)C[C@@]3(C)C[C@@H]23)c2ccc(-c3cnc(C)nc3)cc12 [Compound 1, (1R,3S,5R)-2-(2-(3-acetyl-5-(2-methylpyrimidin-5-yl)-1H-indazol-1-yl)acetyl)-N-(6-bromo-3-methylpyridin-2-yl)-5-methyl-2-azabicyclo[3.1.0]hexane-3-carboxamide]
time approximately 90% or greater inhibition maintained after dosing ([1]; Group 1, 40 mg single dose): at least 4 hours | time approximately 90% or greater inhibition maintained after dosing ([1]; Groups 2 and 3, 80 and 120 mg single dose): at least 8 hours | EC50 ([1]; Homo sapiens, simple Emax model, all SAD dose cohorts, read-out: EC50 (plasma concentration vs serum AP inhibition)): 0.0111 µg/mL (≈ 0.0184 µM) | EC50 (plasma concentration vs serum AP inhibition) ([1]; simple Emax model, all SAD dose cohorts): ~0.01 µg/mL and 0.011 µg/mL | inhibition of AP activity after dosing ([1]; single dose 40, 80 or 120 mg, all groups): complete inhibition | time mean inhibition of 90% or greater maintained post-dosing ([2]; 40 mg dose group): at least 6 hours | time of nadir in AP functional activity post-dose ([2]; 40 mg dose group): 1.5 h | lowest mean (±SD) AP functional activity (relative to positive control) ([2]; 40 mg single dose): 1.25 (±1.153) % | time of nadir in AP functional activity post-dose ([2]; 80 mg and 120 mg dose groups): 3 h | lowest mean (±SD) AP functional activity (relative to positive control) ([2]; 80 mg single dose): 0.13 (±0.097) % | lowest mean (±SD) AP functional activity (relative to positive control) ([2]; 120 mg single dose): 0.09 (±0.102) % | Inhibition of AP functional activity ([2]; all subjects, by 2 hours post-dose): > 90% | Inhibition of AP functional activity ([2]; all treated subjects, 0.5 hours post-dose): > 80% | time mean inhibition of 90% or greater maintained post-dosing ([2]; higher dose groups studied): at least 10 hours
